Measurements reported in patent publication US20160220720A1, “COMPOSITIONS COMPRISING POLYAMINE POLYMER COMPATIBLE PERFUME MATERIALS” (priority 2013, published 2016).
Where “and” joins values, the source holds several entries; their conditions need not be identical. Identical values can stand only once.

Experiment: GC-MS head space ratio of perfume raw materials with versus without polyamine polymer (R)
Format: physicochemical
Conditions: aqueous fabric refresher formulation pH 6.8, 0.05% Lupamin 1595; head space after 1 hr room temperature and 20 minutes at 40° C.; Control without polyamine polymer = 1.000
Description: R=head space of aqueous composition containing polyamine/head space of aqueous composition nil polyamine polymer
Polyamine polymer perfume interactions were studied in aqueous fabric refresher formulations. Aqueous formulations containing a perfume mixture and a polyamine polymer was prepared according to Table 2 and studied against a control fabric refresher formulation without a polyamine polymer. Studies were conducted using 500 ppm (0.05%) polyamine polymer and perfume mixtures at 2 levels (500 ppm (0.05%) and 10,000 ppm […]).
GC-MS was used to study polymer perfume aldehyde interactions using the formulations prepared in Example 1. For the GC-MS analysis, 2 ml of each sample was transferred into 20 ml headspace vial, equilibrated at room temperature for 1 hr, and incubated at 40° C. for 20 minutes. Then, 1 ml of head space was injected into GC-MS using 1 to 10 split, and perfume raw material intensities were measured. Perfume raw material peak area ratios were then calculated using the control sample without a polyamine polymer.
PRMs that react with polyamine polymer have a headspace concentration less than 1.00 with respect to the normalized Control.

Compound	GC-MS head space peak area ratio normalized to Control
CCC/C=C/C=O [Trans-2-hexenal]	0.226
CC(=O)c1cccs1 [2-acetyl thiophene]	0.794
O=CCCC=C1CC2CC1C1CCCC21 (stereo not drawn) [Dupical]	0.932
CCCCCCCCCCCC=O [Lauric Aldehyde]	0.169
CCCCCCC(C=O)=Cc1ccccc1 [Hexylcinnamicaldehyde]	1.480
CCCCCCCCCC(C)C=O (stereo not drawn) [Methyl Nonyl Acetaldehyde]	0.772
CC(=O)/C=C/C1=C(C)CCCC1(C)C [Beta Ionone]	1.222
CC(=O)c1ccc(C(C)=O)cc1 [1,4-diacety lbenzene]	0.913
CC(C)=CCCC(C)CC=O (stereo not drawn) [Citronellal]	2.597
CC(C)=CCCC(C)CCCC(C)C=O (stereo not drawn) [Adoxal]	0.751
COc1ccc(C=O)cc1 [p-Anisaldehyde]	1.521
CCCCCCCCCCC=CC=O [Tridecenal]	0.470
CCCCCCCCC=O [Nonaldehyde]	0.209
CCCCCCCCC(C)C=O (stereo not drawn) [Methyl Octyl acetaldehyde]	0.836
CC(C)=CCC/C(C)=C\C=O [Neral]	0.261
O=Cc1ccccc1 [Benzaldehyde]	1.030
CC(C)c1ccc(C=O)cc1 [Cuminaldehyde]	0.977
CCCCCC=O [Hexanal]	0.222
CC(C)CCCC(C)CC=O (stereo not drawn) [Tetrahydrogeranial]	0.415
C=C(C)C1CC=C(C)C(=O)C1 (stereo not drawn) [Carvone]	1.103
CCCC(C)C=O (stereo not drawn) [2-methyl petanal]	0.864
C/C=C/C(=O)C1C(C)C=CCC1(C)C (stereo not drawn) [Delta-damascone]	1.228

Same assay, conditions: aqueous fabric refresher formulation pH 6.8, 0.05% Lupamin 1595; head space after 1 hr room temperature and 20 minutes at 40° C.; Control without polyamine polymer = 1.000; listed as Kaovone

Compound	GC-MS head space peak area ratio normalized to Control
CC(=O)/C(C)=C(/C)C(C)C(C)(C)C (stereo not drawn) [Koavone]	1.185 and 1.159 and 1.171

Same assay, conditions: head space with polyamine polymer / head space nil polyamine polymer

Compound	Obs. Lupamin Ratio
CC(C)=CCC/C(C)=C/C=O [Citral]	0.23
CC(=O)/C(C)=C(/C)C(C)C(C)(C)C (stereo not drawn) [Koavone]	1.17
CC(C)=CCCC(C)CCCC(C)C=O (stereo not drawn) [Adoxal]	0.79
COc1ccc(C=O)cc1 [p-Anisaldehyde]	1.52
CCCCCCCCC=O [Nonaldehyde]	0.21
CC1(C)CCc2ccc(CCC=O)cc21 [Hivernal]	0.17
O=CC1CCC2C3CCC(C3)C12 (stereo not drawn) [Melozone]	0.28
CC(C)CCCC(C)CC=O (stereo not drawn) [Tetrahydrogeranial]	0.42
O=Cc1ccc2c(c1)OCO2 [Heliotropin]	1.65

Experiment: not given
Conditions: ambient temperature; cited from earlier work

Compound	water solubility (benchmark)
hydroxypropyl modified beta cyclodextrin	≥ 60 g/100 ml
